# Source: patent publication US6867179B1, “Methods of inducing hair growth and coloration” (Trustees of Boston University, priority 1994, dated 2005)
# Experiments:
# Format in all cases: cell-based, human
# melanocytes = assay: NGF protection of melanocytes from beta-amyloid-induced cell death
# Description: Melanocytes were maintained as above in hormone supplemented medium lacking hydrocortisone. Cells were supplemented with 25 microM of beta-amyloid 1-40 in the presence of 50 ng/ml NGS or diluent.
# Photographs of representative fields were obtained and the percent of the live cells (spread) was determined 48 hours after addition of beta-amyloid and NFG or beta-amyloid and diluent. In the presence of beta-amyloid and diluent 77±8.5% appeared spread as compared to 96±1.4% in cultures supplemenbetated in beta-amyloid and NGF.
# Keratinocytes = assay: Keratinocyte DNA fragmentation and cell yield after UV irradiation with NGF
# Description: Keratinocytes were plated in 60 mm diameter tissue culture dishes in MCDB153 supplemented with epidermal growth factor (0.1 ng/ml human recombinant), insulin (5 microg/ml), hydrocortisone (0.5 microg/ml, calcium (0.15 mM), bovine pituitary extract (BPE), (2 ml per 500 ml medium), gentamicin (50 microg/ml), and amphotericin-B (50 ng/ml) (karetinocyte basal medium). Preconfluent cells were irradiated in phosphate buffered saline PBS) using a 1 KW xenon arc solar simulator (XMN 1000-21, Optical Radiation Corp., Azuza, Calif.) with 15 or 25 mJ/cm^2 UV through the petri dish plastic cover as described in Example 7. After UV irradiation, cells were maintained in their basal medium 3 days and processed as indicated. Sham irradiated control cultures were handled identically but placed under a dark cloth adjacent to the UV beam.
# Cells were washed with cold PBS and disrupted in lysis buffer pH8 (10 mM tris, 150 mM NaCl, 0.1 mM EDTA, 1% SDS, 200 µg/ml proteinase K). After 15 hour incubation at […], samples were extracted twice with phenol plus chloroform (1:1, V/V) and precipitated overnight with ethanol (2.5×volume) and 3 M sodium acetate (1/10×volume). The DNA was then digested with DNAse free ribonuclease (10 microg/ml) for one hour at 37C, separated on 1% agarose gel and stained with ethidium bromide.
# Keratinocytes were UV-irradiated as in Example 9. After irradiation cells were placed in fresh keratinocyte medium containing 50 ng/ml NGF or diluent alone. DNA fragmentation was determined as in Example 9. […] The standard (STD) is 100 bp DNA ladder (Gibco/BRL). […] UV irradiated keratinocytes were growth arrested as expected.
# BCL-2 = BCL-2 antisense oligonucleotides in UV-irradiated MM4 cells with or without NGF; conditions: UV 10 mJ/cm^2, NGF 50 ng/ml, 48 hours
# Source text: Purified phosphorothioate oligonucleotides were purchased from Quality Controlled Biochemicals, Inc. (Hopkinton, Mass.). 19 mer oligonucleotides were designed based on the published human BCL-2 sequence (Tsujimoto, Y. and Croce, C. M., Proc. Natl. Acad. Sci. USA, 83:5214-5218 (1986)). The sequence chosen was directed against the […] of the coding region starting 4 bases before the methionine initiation site. Nonsense oligonucleotides were used as control. Sequences used (all written 5′ to 3′): Antisense CCCAGCGTGCGCCATCCTT (SEQ ID NO: 7); Nonsense CTCCCACTCGTCATTCGAC (SEQ ID NO: 8).
# MM4 cells were maintained in 60 mm diameter tissue culture dishes in 55.3% DME, 27.6% L15, 15% FBS, 1% nonessential amino acids (GIBCO BRL), 2 mM glutamine and 10 µg/ml insulin. Near confluent cells were UV irradiated with 10 mJ/cm^2. Immediately after irradiation cells were incubated with 10 uM antisense or nonsense BCL-2 oligonucleotides in suspension at […] for 30 minutes. Then cells were plated in tissue culture dishes in the presence or absence of NGF (50 ng/ml). Cells were supplemented with fresh oligonucleotides every 12 hours. Cell yield and BCL-2 level were determined 48 hours after irradiation. Cell yield was determined by counting cells in at least three representative field per each condition.
# MM4 cells = assay: MM4 cell yields after UV or sham irradiation with growth factor supplementation; conditions: UV 10 mJ/cm^2, 50 ng/ml NGF, 4 experiments
# Description: Melanocytes or MM4 cells were plated in 60 mm diameter tissue culture dishes. Melanocytes were maintained in Medium 199 supplemented with 7% fetal bovine serum (FBS), 10 ng/ml epidermal growth factor (Collaborative Research), […] (Sigma), […] (Collaborative Research), […] (Sigma), 1.4×10^−6 M hydrocortisone (Calbiochem), […] (Calbiochem), and 10 ng/ml basic fibroblast growth factor (Collaborative Research) (basal melanocyte medium). MM4 cells were maintained in 55.3% DME, 27.6% L15, 15% FBS, 1% nonessential amino acids (GIBCO BRL), 2 mM glutamine and 10 µg/ml insulin. After 24 hours, medium was replaced by phosphate buffered saline (PBS) and cells were irradiated using a 1 KW xenon arc solar simulator (XMN 1000-21, Optical Radiation Corp., Azuza, Calif.) with 5, 10, or 25 mJ/cm^2 UV through the petri dish plastic cover. Irradiance was adjusted to 4×10^−5 UV cm^−2 and metered with a research radiometer (model IL1700A, International Light, Newburyport, Mass.) fitted with a UVB probe at 285 Å 5 nm. After UV irradiation, cells were maintained in their respective media without FBS for 2 days (MM4 cells) or 3 days (melanocytes) and processed as indicated. Sham irradiated control cultures were handled identically but laced under a dark cloth adjacent to the UV beam.
# FIGS. 2B and 2D show MM4 cell yields 24-72 hours after a single UV irradiation of 10 mJ/cm^2. FIGS. 2C and 2e show MM4 cell yields 24-72 hours after sham irradiation. Cells in FIGS. 2B and 2C were supplemented with 50 ng/ml NGF or diluent alone. Cells in FIGS. 2D and 2E were supplemented with 50 ng/ml bFGF or diluent alone.
# Melanocytes or MM4 cells were plated as described in Example 1. After irradiation, melanocytes were maintained in basal melanocyte medium lacking FBS and hydrocortisone, with 50 ng/ml NGF or diluent alone (melanocyte medium). MM4 cells were maintained in DME supplemented with 50 ng/ml NGF or diluent alone.
# p75 = p75 signal transduction in melanocytes (JNK activation, intracellular ceramide)
# Description: To investigate p75 signal transduction, it was first determined by RT-PCR that trkA and trkC are not expressed in MC maintained in choleragen/TPA-free medium. MC were incubated with 10 ng/ml nerve growth factor (NGF) or neurotrophin-3 (NT-3) for 30 minutes and c-Jun amino terminal kinase (JNK) activation was determined. […] Furthermore, within 3 hours p75 activation by NGF, but not by NT-3, lead to a 2-fold increase of intracellular ceramide. As before, ceramide increase was abrogated by pre-incubation with the cyclic peptide. Because in cell lines, UV irradiation directly activates cell surface receptors such as Fas and the TNFα receptor, sham- or UV-irradiated MC were used to determine p75 activation.
# [1] = NGF supplementation, preliminary data
substance,measurement,setting,value
"NGF: nerve growth factor, neurotrophin ligand of p75 NGF-R and trk",Percent of live cells (spread),"melanocytes; 25 microM beta-amyloid 1-40 and 50 ng/ml NGF, 48 hours",96±1.4%
same,Cell yields of beta-amyloid-supplemented melanocytes,"melanocytes; NGF addition, within 3-5 days",enhanced cell yields
same,Bcl-2 levels in beta-amyloid treated cells,melanocytes; [1],increases Bcl-2 levels
same,Beta-amyloid-induced Bax upregulation,melanocytes; [1],decreases the beta-amyloid-induced Bax upregulation
same,Appearance of beta-amyloid exposed melanocytes,melanocytes; in the presence of NGF,appear healthy and spread on the dish surface
same,DNA fragmentation of UV irradiated keratinocytes,Keratinocytes; 50 ng/ml NGF,not fragmented
same,Increase in keratinocyte cell yields,"Keratinocytes; NGF supplemented medium, within 5 days",40%
same,Decrease in keratinocyte cell yield,"Keratinocytes; UV irradiated, 50 ng/ml NGF, within 24 hours, diluent 50%",30%
same,"Cell yields, NGF plus nonsense oligonucleotides versus diluent plus nonsense",BCL-2,significantly higher
same,Cell yields of MM4 cells versus diluent alone,MM4 cells,significantly higher
same,JNK activation (phosphorylation of GST-c-Jun(1-79)),"p75; 10 ng/ml, 30 minutes, MC without trkA and trkC",substantially induced phosphorylation of GST-c-Jun(1-79)
same,Increase of intracellular ceramide,p75; within 3 hours,2 fold
